Measurements reported in patent publication US10703764B2, “Benzopiperazine compositions as BET bromodomain inhibitors” (FORMA Therapeutics, Inc., priority 2013, dated 2020).

Experiments:
MV4-11 cells = assay: Oncology cell growth assay (3-day proliferation, CellTiter-Glo); type: cell-based; conditions: Homo sapiens, MV4-11, 72 h, AML cell line MV4-11, 72 hours, compounds grouped by IC50 range, read-out: MV4-11 IC50 (inhibition of proliferation, gIC50)
Protocol: The impact of Example compounds on cancer cell proliferation was determined using the acute myelocytic leukemia (AML) cell line MV4-11 (ATCC) in a 3-day proliferation assay. MV4-11 cells were maintained in RPMI 1640 media supplemented with 10% FBS at 37° C. and an atmosphere of 5% CO2. For compound testing, compound dilutions series were prepared in DMSO via a 3-fold serial dilution from 2 mM to 0.001 mM in 384-well white flat bottom plates. The final compound concentrations in the wells were 10, 3.3, 1.1, 0.37, 0.12, 0.041, 0.013 and 0.0045 μM. MV4-11 cells were plated at a density of 3000 cells/well in final volume of 50 μl culture media and incubated for 72 hours. […] Luminescent signal from the CellTiter-Glo assay was read on an EnVision multilabel plate reader (PerkinElmer). Values for the concentration that inhibited cell growth by 50% (gIC50) between the DMSO control and background control (no cells) were determined using IDBS Activity Base software with a four parameter logistic curve fit by the equation y=A+((B−A)/(1+((C/x)^D))), wherein A denotes the bottom plateau of the curve, B denotes the top plateau of the curve, C denotes the x value at the middle of the curve, D denotes the slope factor, x denotes the original known x values, and y denotes the original known y values. Data was fitted using the Levenburg Marquardt algorithm.

BRD4 BD1 = target: T1, BRD4 BD1 (Homo sapiens, UniProt O60885); assay: AlphaScreen binding assay, BRD4 Bromodomain 1
T1 construct: made in house
How it was run: (§1)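 Compound dilution series were mixed with His-tagged BRD4 bromodomain and biotinylated tetra-acetylated H4 (1-21) peptide at pH 7.3 (BD1 and peptide at 50 nM, BD2 and peptide at 100 nM). Donor and acceptor beads were then added, and plates were equilibrated at least 1 h before reading. IC50 values were fitted with a four-parameter logistic model.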

BRD4 BD2 = target: T2, BRD4 BD2 (Homo sapiens, UniProt O60885); assay: AlphaScreen binding assay, BRD4 Bromodomain 2
T2 construct: made in house
How it was run: as §1

| SMILES | IC50 (MV4-11 cells) [µM] | IC50 (BRD4 BD1) [µM] | IC50 (BRD4 BD2) [µM] |
| --- | --- | --- | --- |
| CC(=O)N1c2ccc(-c3cnn(C4CN[C@@H]4C)c3)cc2N(C(=O)OC2CCC2)C[C@@H]1C (stereo partly drawn) [Example I-170, cyclobutyl (3S)-4-acetyl-3-methyl-7-{1-[(2R)-2-methylazetidin-3-yl]-1H-pyrazol-4-yl}-1,2,3,4-tetrahydroquinoxaline-1-carboxylate] | 0.1 to 0.5 | 0.1 to 1 | – |
| CC(=O)N1c2ccc(-c3cnn([C@@H]4CCCS(=O)(=O)C4)c3)cc2N(C(=O)OCC2CC2)C[C@@H]1C [Example I-171, cyclopropylmethyl (3S)-4-acetyl-7-{1-[(3R)-1,1-dioxo-1λ^6-thian-3-yl]-1H-pyrazol-4-yl}-3-methyl-1,2,3,4-tetrahydroquinoxaline-1-carboxylate] | > 0.5 | 0.1 to 1 | – |
| CC(=O)N1c2ccc(-c3cnn([C@H]4CCCS(=O)(=O)C4)c3)cc2N(C(=O)OCC2CC2)C[C@@H]1C [Example I-172, cyclopropylmethyl (3S)-4-acetyl-7-{1-[(3S)-1,1-dioxo-1λ^6-thian-3-yl]-1H-pyrazol-4-yl}-3-methyl-1,2,3,4-tetrahydroquinoxaline-1-carboxylate] | > 0.5 | 0.1 to 1 | – |
| CC(=O)N1c2ccc(-c3cnn([C@@H]4CCCS(=O)(=O)C4)c3)cc2N(C(=O)OC2CCC2)C[C@@H]1C [Example I-173, cyclobutyl (3S)-4-acetyl-7-{1-[(3R)-1,1-dioxo-1λ^6-thian-3-yl]-1H-pyrazol-4-yl}-3-methyl-1,2,3,4-tetrahydroquinoxaline-1-carboxylate] | < 0.1 | 0.1 to 1 | – |
| COC(=O)N1c2ccc(-c3cnn(CCS(C)(=O)=O)c3)cc2N(C(=O)Oc2ccccn2)C[C@@H]1C [Example I-1319] | – | 1 to 10 | 0.05 to 0.5 |
| CC(=O)N1c2ccc(-c3cnn(CC(C)(C)O)c3)cc2N(C(=O)Oc2ccccn2)C[C@@H]1C [Example I-1320] | – | 1 to 10 | 0.05 to 0.5 |
| COC(=O)N1c2ccc(-c3cnn(CC(C)(C)O)c3)cc2N(C(=O)Oc2ccccn2)C[C@@H]1C [Example I-1321] | – | 1 to 10 | 0.05 to 0.5 |
| COC(=O)N1c2ccc(-c3ccc(N4CCCS4(=O)=O)cc3)cc2N(C(=O)Oc2ccccn2)C[C@@H]1C [Example I-1325] | – | 1 to 10 | 0.05 to 0.5 |
| COC(=O)N1c2ccc(-c3cnn(CCC#N)c3)cc2N(C(=O)Oc2ccccn2)C[C@@H]1C [Example I-1327] | – | 1 to 10 | 0.05 to 0.5 |
| COC(=O)N1c2ccc(-c3ccc4c(c3)CCN4S(C)(=O)=O)cc2N(C(=O)Oc2ccccn2)C[C@@H]1C [Example I-1329] | – | 1 to 10 | 0.05 to 0.5 |
| COC(=O)N1c2ccc(-c3ccc(N(C)S(C)(=O)=O)cc3)cc2N(C(=O)Oc2ccccn2)C[C@@H]1C [Example I-1331] | – | 1 to 10 | 0.05 to 0.5 |
| COC(=O)N1c2ccc(-c3cnn(C4CCNCC4)c3)cc2N(C(=O)Oc2ccccn2)C[C@@H]1C [Example I-1333] | – | 1 to 10 | 0.05 to 0.5 |
| COC(=O)N1c2ccc(-c3cnn(CCO)c3)cc2N(C(=O)Oc2ccccn2)C[C@@H]1C [Example I-1335] | – | 1 to 10 | 0.05 to 0.5 |

Results, then the compound that gave them:

| IC50 (MV4-11 cells) [µM] | IC50 (BRD4 BD1) [µM] | IC50 (BRD4 BD2) [µM] | SMILES |
| --- | --- | --- | --- |
| > 0.5 | 0.1 to 1 | – | CC(=O)N1c2ccc(-c3cnn(C4CN[C@H]4C)c3)cc2N(C(=O)OC2CC(F)(F)C2)C[C@@H]1C (mixture of isomers) [Example I-168, 3,3-difluorocyclobutyl (3S)-4-acetyl-3-methyl-7-{1-[(2S)-2-methylazetidin-3-yl]-1H-pyrazol-4-yl}-1,2,3,4-tetrahydroquinoxaline-1-carboxylate] |
| 0.1 to 0.5 | 0.1 to 1 | – | CC(=O)N1c2ccc(-c3cnn(C4CCNC(=O)C4)c3)cc2N(C(=O)OC2CCC2)C[C@@H]1C (single isomer, unassigned) [Example I-176] |
| 0.1 to 0.5 | 0.1 to 1 | – | CC(=O)N1c2ccc(-c3cnn(C4CS(=O)(=O)C4)c3)cc2N(C(=O)OC2CC(F)(F)C2)C[C@@H]1C [Example I-1, 3,3-difluorocyclobutyl (3S)-4-acetyl-7-[1-(1,1-dioxo-1λ^6-thietan-3-yl)-1H-pyrazol-4-yl]-3-methyl-1,2,3,4-tetrahydroquinoxaline-1-carboxylate] |
| < 0.1 | < 0.1 | – | CC(=O)N1c2ccc(-c3cnn(C4CCS(=O)(=O)CC4)c3)cc2N(C(=O)OC2CCC2)C[C@@H]1C [Example I-154, cyclobutyl (3S)-4-acetyl-7-[1-(1,1-dioxo-1λ^6-thian-4-yl)-1H-pyrazol-4-yl]-3-methyl-1,2,3,4-tetrahydroquinoxaline-1-carboxylate] |
| > 0.5 | 0.1 to 1 | – | CC(=O)N1c2ccc(-c3cnn(C4CCS(=O)(=O)CC4)c3)cc2N(C(=O)OC(C)C)C[C@@H]1C [Example I-156, propan-2-yl (3S)-4-acetyl-7-[1-(1,1-dioxo-1λ^6-thian-4-yl)-1H-pyrazol-4-yl]-3-methyl-1,2,3,4-tetrahydroquinoxaline-1-carboxylate] |
| < 0.1 | 0.1 to 1 | – | CC(=O)N1c2ccc(-c3cnn(C4CN[C@H]4C)c3)cc2N(C(=O)OC(C)C)C[C@@H]1C (stereo partly drawn) [Example I-159, propan-2-yl (3S)-4-acetyl-3-methyl-7-{1-[(2S)-2-methylazetidin-3-yl]-1H-pyrazol-4-yl}-1,2,3,4-tetrahydroquinoxaline-1-carboxylate] |
| < 0.1 | 0.1 to 1 | – | CC(=O)N1c2ccc(-c3cnn(C4CN[C@H]4C)c3)cc2N(C(=O)C2CC2)C[C@@H]1C (stereo partly drawn) [Example I-160, 1-[(2S)-4-cyclopropanecarbonyl-2-methyl-6-{1-[(2S)-2-methylazetidin-3-yl]-1H-pyrazol-4-yl}-1,2,3,4-tetrahydroquinoxalin-1-yl]ethan-1-one] |
| 0.1 to 0.5 | 0.1 to 1 | – | CC(=O)N1c2ccc(-c3cnn(C4CCNC(=O)C4)c3)cc2N(C(=O)OC2CCOCC2)C[C@@H]1C (stereo partly drawn) [Example I-163, oxan-4-yl (3S)-4-acetyl-3-methyl-7-[1-(2-oxopiperidin-4-yl)-1H-pyrazol-4-yl]-1,2,3,4-tetrahydroquinoxaline-1-carboxylate] |
| > 0.5 | 0.1 to 1 | – | CC(=O)N1c2ccc(-c3cnn(C4CCNC(=O)C4)c3)cc2N(C(=O)OC2CC(F)(F)C2)C[C@@H]1C (stereo partly drawn) [Example I-164, 3,3-difluorocyclobutyl (3S)-4-acetyl-3-methyl-7-[1-(2-oxopiperidin-4-yl)-1H-pyrazol-4-yl]-1,2,3,4-tetrahydroquinoxaline-1-carboxylate] |
| 0.1 to 0.5 | 0.1 to 1 | – | CC(=O)N1c2ccc(-c3cnn(C4CCNC(=O)C4)c3)cc2N(C(=O)OC2CCC(F)(F)CC2)C[C@@H]1C (stereo partly drawn) [Example I-165, 4,4-difluorocyclohexyl (3S)-4-acetyl-3-methyl-7-[1-(2-oxopiperidin-4-yl)-1H-pyrazol-4-yl]-1,2,3,4-tetrahydroquinoxaline-1-carboxylate] |
| 0.1 to 0.5 | 0.1 to 1 | – | CC(=O)N1c2ccc(-c3cnn(C4CCNC(=O)C4)c3)cc2N(C(=O)OC(C)C)C[C@@H]1C (stereo partly drawn) [Example I-166, propan-2-yl (3S)-4-acetyl-3-methyl-7-[1-(2-oxopiperidin-4-yl)-1H-pyrazol-4-yl]-1,2,3,4-tetrahydroquinoxaline-1-carboxylate] |
| 0.1 to 0.5 | 0.1 to 1 | – | CC(=O)N1c2ccc(-c3cnn(C4CCNC(=O)C4)c3)cc2N(C(=O)C2CC2)C[C@@H]1C (stereo partly drawn) [Example I-167, 4-{4-[(2S)-1-acetyl-4-cyclopropanecarbonyl-2-methyl-1,2,3,4-tetrahydroquinoxalin-6-yl]-1H-pyrazol-1-yl}piperidin-2-one] |
| > 0.5 | 0.1 to 1 | – | CC(=O)N1c2ccc(-c3cnn(C4CCS(=O)(=O)CC4)c3)cc2N(C(=O)OCC2CC2)C[C@@H]1C [Example I-169, cyclopropylmethyl (3S)-4-acetyl-7-[1-(1,1-dioxo-1λ^6-thian-4-yl)-1H-pyrazol-4-yl]-3-methyl-1,2,3,4-tetrahydroquinoxaline-1-carboxylate] |
| < 0.1 | < 0.1 | – | CC(=O)N1c2ccc(-c3cnn([C@H]4CCCS(=O)(=O)C4)c3)cc2N(C(=O)OC2CCC2)C[C@@H]1C [Example I-174, cyclobutyl (3S)-4-acetyl-7-{1-[(3S)-1,1-dioxo-1λ^6-thian-3-yl]-1H-pyrazol-4-yl}-3-methyl-1,2,3,4-tetrahydroquinoxaline-1-carboxylate] |
| < 0.1 | < 0.1 | – | CC(=O)N1c2ccc(-c3cnn(C4CCNC(=O)C4)c3)cc2N(C(=O)OC2CCC2)C[C@@H]1C (stereo partly drawn) [Example I-175, cyclobutyl (3S)-4-acetyl-3-methyl-7-[1-(2-oxopiperidin-4-yl)-1H-pyrazol-4-yl]-1,2,3,4-tetrahydroquinoxaline-1-carboxylate] |
